Assay results from patent US7705007B2, “Cis-imidazolines” (Hoffmann-La Roche Inc., priority 2006, dated 2010).
Where a name gives a salt, the structure may show the parent alone.

biological target: interaction between p53 and MDM2 proteins (recombinant GST-tagged MDM2 / p53 peptide) (Homo sapiens, UniProt Q00987); assay: HTRF assay of inhibition of the p53-MDM2 interaction (GST-MDM2 binding to biotinylated p53 peptide); conditions: 90 nM biotinylated p53 peptide, 160 ng/mL GST-MDM2, 37° C. 1 h
Procedure: The ability of the compounds to inhibit the interaction between p53 and MDM2 proteins was measured by an HTRF (homogeneous time-resolved fluorescence) assay in which recombinant GST-tagged MDM2 binds to a peptide that resembles the MDM2-interacting region of p53 (Lane et al.). Binding of GST-MDM2 protein and p53-peptide (biotinylated on its N-terminal end) is registered by the FRET (fluorescence resonance energy transfer) between Europium (Eu)-labeled anti-GST antibody and streptavidin-conjugated Allophycocyanin (APC).
Test is performed in black flat-bottom 384-well plates (Costar) in a total volume of 40 uL containing: 90 nM biotinylate peptide, 160 ng/mL GST-MDM2, 20 nM streptavidin-APC (PerkinElmerWallac), 2 nM Eu-labeled anti-GST-antibody (PerkinElmerWallac), 0.2% bovine serum albumin (BSA), 1 mM dithiothreitol (DTT) and 20 mM Tris-borate saline (TBS) buffer as follows: Add 10 uL of GST-MDM2 (640 ng/mL working solution) in reaction buffer to each well. Add 10 uL diluted compounds (1:5 dilution in reaction buffer) to each well, mix by shaking. Add 20 uL biotinylated p53 peptide (180 nM working solution) in reaction buffer to each well and mix on shaker. Incubate at 37° C. for 1 h. Add 20 uL streptavidin-APC and Eu-anti-GST antibody mixture (6 nM Eu-anti-GST and 60 nM streptavidin-APC working solution) in TBS buffer with 0.2% BSA, shake at room temperature for 30 minutes and read using a TRF-capable plate reader at 665 and 615 nm (Victor 5, Perkin ElmerWallac). If not specified, the reagents were purchased from Sigma Chemical Co.

interaction between p53 and MDM2 proteins (recombinant GST-tagged MDM2 / p53 peptide), sequence (Q00987 whole entry): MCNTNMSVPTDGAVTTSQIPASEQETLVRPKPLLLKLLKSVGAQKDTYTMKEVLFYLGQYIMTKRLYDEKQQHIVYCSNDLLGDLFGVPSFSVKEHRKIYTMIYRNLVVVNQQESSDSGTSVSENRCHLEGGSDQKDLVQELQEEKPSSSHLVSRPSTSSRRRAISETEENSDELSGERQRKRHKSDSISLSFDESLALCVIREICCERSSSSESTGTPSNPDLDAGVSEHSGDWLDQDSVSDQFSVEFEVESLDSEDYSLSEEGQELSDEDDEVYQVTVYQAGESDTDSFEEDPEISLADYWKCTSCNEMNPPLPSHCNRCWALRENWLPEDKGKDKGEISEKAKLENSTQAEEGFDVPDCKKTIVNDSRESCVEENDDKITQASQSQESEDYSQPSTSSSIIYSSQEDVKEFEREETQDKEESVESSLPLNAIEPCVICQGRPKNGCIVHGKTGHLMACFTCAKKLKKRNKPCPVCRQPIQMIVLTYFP

Row | SMILES | IC50
1 | CCOc1nc(C)ncc1C1=N[C@@H](c2ccc(Cl)cc2)[C@@H](c2ccc(Cl)cc2)N1C(=O)N1CCN(CC(=O)N(C)C)CC1 (relative stereo) [Example 17, cis-2-{4-[4,5-Bis-(4-chloro-phenyl)-2-(4-ethoxy-2-methyl-pyrimidin-5-yl)-4,5-dihydro-imidazole-1-carbonyl]-piperazin-1-yl}-N,N-dimethyl-acetamide] | 677 nM
2 | CCOc1ccsc1C1=N[C@@H](c2ccc(Cl)cc2)[C@@H](c2ccc(Cl)cc2)N1C(=O)N1CCN(CC(=O)NC(C)(C)C)CC1 [Example 34, 2-{4-[(4S,5R)-4,5-Bis-(4-chloro-phenyl)-2-(3-ethoxy-thiophen-2-yl)-4,5-dihydro-imidazole-1-carbonyl]-piperazin-1-yl}-N-tert-butyl-acetamide] | 110 nM

Further compounds by falling IC50, results first:

Row | IC50 | SMILES
3 | 2890 nM | CCOc1nc(C(F)(F)F)ncc1C1=N[C@@H](c2ccc(Cl)cc2)[C@@H](c2ccc(Cl)cc2)N1C(=O)N1CCN(CCS(C)(=O)=O)CC1 (relative stereo) [Example 6, cis-[4,5-Bis-(4-chloro-phenyl)-2-(4-ethoxy-2-trifluoromethyl-pyrimidin-5-yl)-4,5-dihydro-imidazol-1-yl]-[4-(2-methanesulfonyl-ethyl)-piperazin-1-yl]-methanone]
4 | 54 nM | CCOc1ccsc1C1=N[C@@H](c2ccc(Cl)cc2)[C@@H](c2ccc(Cl)cc2)N1C(=O)N1CCN(CC(=O)N(CCOC)CCOC)CC1 [Example 36, 2-{4-[(4S,5R)-4,5-Bis-(4-chloro-phenyl)-2-(3-ethoxy-thiophen-2-yl)-4,5-dihydro-imidazole-1-carbonyl]-piperazin-1-yl}-N,N-bis-(2-methoxy-ethyl)-acetamide]
5 | 46 nM | CCOc1nc(C(C)(C)C)ncc1C1=N[C@@H](c2ccc(Cl)cc2)[C@@H](c2ccc(Cl)cc2)N1C(=O)N1CCNC(=O)C1 (relative stereo) [Example 20, cis-4-[2-(2-tert-Butyl-4-ethoxy-pyrimidin-5-yl)-4,5-bis-(4-chloro-phenyl)-4,5-dihydro-imidazole-1-carbonyl]-piperazin-2-one hydrochloride]
